{
  "source": "patent EP4463162B1",
  "about": "“CONNEXIN 43 FOR USE IN TREATING BRCA1/2-MUTATED CANCER” (Fundación Profesor Novoa Santos, priority 2022, dated 2023)",
  "test_system": "SNU251 cells",
  "test": "Proliferation assay (Cell Counting Kit-8)",
  "assay_type": "cell-based, human",
  "conditions": "Cx43-restored SNU251 vs EV, 100 and 200 µM olaparib, 96 h, beginning at 48 h",
  "method": "Proliferation of tumour cell lines was evaluated using the Cell Counting Kit-8 (Dojindo Molecular Technologies). This kit comprises WST-8, a highly water-soluble tetrazolium salt, which upon reduction by cellular dehydrogenases of viable cells, gives rise to a yellow formazan dye that is solube in cell culture media and can be quantitated. Briefly, similar number of cells (1 000-5 000) were plated in 96-well plates (Corning) and left to grow for the desired time period under different treatment conditions. Then, medium was renewed (100 µL volume/well) and 10 µL of CCK-8 reagent were added to each well. Plates were incubated in the dark for 3 h at 37 °C, and absorbance was measured at 450 nm in a NanoQuant Infinite 200 plate reader (Tecan).\nIn order to complement previous results with another clinically relevant PARPi-treated cancer, assays were repeated with BRCA1 mutated ovarian cancer cell line SNU251, efficiently nucleofected with EV or Cx43-restituting plasmids (Figure 8). SNU251 wild type (EV) cells had no native Cx43 expression, as assayed by western blot ( Figure 8.A).\nTo further characterize its involvement in BRCA1/2 mutated cancer, Cx43 was restituted by plasmid transfection in BRCA1 mutated TNBC and ovarian carcinoma cell lines, HCC1937 and SNU251, respectively. […]",
  "data": [
    {"molecule": "O=C(c1cc(Cc2n[nH]c(=O)c3ccccc23)ccc1F)N1CCN(C(=O)C2CC2)CC1", "note": "[Olaparib, olaparib]", "values": [
      {"measurement": "response to olaparib (proliferation)", "result": "significantly better response to olaparib than EV cells"}
    ]}
  ]
}
